Reference: PubChem BioAssay (NCI)
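Test compounds were applied to cells in 96-well plates for 48 hours at 5 doses. TGI is the concentration that stops growth completely.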

Columns and labels:
Assay in all cases: NCI tumour cell line growth inhibition, 48 h
K-562 leukemia = test system: K-562 leukemia
NCI-H226 lung = test system: NCI-H226 lung
IGROV1 ovarian = test system: IGROV1 ovarian
HOP-62 NSCLC = test system: HOP-62 NSCLC
U251 CNS = test system: U251 CNS
OVCAR-5 ovarian = test system: OVCAR-5 ovarian
UACC-257 melanoma = test system: UACC-257 melanoma
HS 578T breast = test system: HS 578T breast
HOP-92 NSCLC = test system: HOP-92 NSCLC
TK-10 renal = test system: TK-10 renal
HL-60(TB) leukemia = test system: HL-60(TB) leukemia
A549 NSCLC = test system: A549 NSCLC
786-0 renal = test system: 786-0 renal
HCT-15 colon = test system: HCT-15 colon
SW-620 colon = test system: SW-620 colon
SF-539 CNS = test system: SF-539 CNS
SK-OV-3 ovarian = test system: SK-OV-3 ovarian
OVCAR-3 ovarian = test system: OVCAR-3 ovarian
RPMI-8226 leukemia = test system: RPMI-8226 leukemia
NCI-H460 lung = test system: NCI-H460 lung
PC-3 prostate = test system: PC-3 prostate
T-47D breast = test system: T-47D breast
SR leukemia = test system: SR leukemia
CCRF-CEM leukemia = test system: CCRF-CEM leukemia
SNB-75 CNS = test system: SNB-75 CNS
OVCAR-4 ovarian = test system: OVCAR-4 ovarian
NCI-H23 lung = test system: NCI-H23 lung
SN12C renal = test system: SN12C renal
DU-145 prostate = test system: DU-145 prostate
HCT-116 colon = test system: HCT-116 colon
A498 renal = test system: A498 renal
M14 melanoma = test system: M14 melanoma
MDA-MB-435 = test system: MDA-MB-435
SK-MEL-2 melanoma = test system: SK-MEL-2 melanoma
KM12 colon = test system: KM12 colon
EKVX NSCLC = test system: EKVX NSCLC
NCI/ADR-RES ovarian = test system: NCI/ADR-RES ovarian
MOLT-4 leukemia = test system: MOLT-4 leukemia
MDA-MB-231 breast = test system: MDA-MB-231 breast
CAKI-1 renal = test system: CAKI-1 renal
SK-MEL-5 melanoma = test system: SK-MEL-5 melanoma
NCI-H522 lung = test system: NCI-H522 lung
MALME-3M melanoma = test system: MALME-3M melanoma
UACC-62 melanoma = test system: UACC-62 melanoma
COLO 205 colon = test system: COLO 205 colon
SNB-19 CNS = test system: SNB-19 CNS
OVCAR-8 ovarian = test system: OVCAR-8 ovarian
HCC-2998 colon = test system: HCC-2998 colon
MDA-N = test system: MDA-N
UO-31 renal = test system: UO-31 renal
ACHN renal = test system: ACHN renal
SF-295 CNS = test system: SF-295 CNS
HT29 colon = test system: HT29 colon
SK-MEL-28 melanoma = test system: SK-MEL-28 melanoma
MCF7 breast = test system: MCF7 breast
BT-549 breast = test system: BT-549 breast
LOX IMVI melanoma = test system: LOX IMVI melanoma
SF-268 CNS = test system: SF-268 CNS

Cc1ccc2c(c1)C(=O)c1[nH]c3ccc(F)cc3c1CO2
TGI (K-562 leukemia): > 100 µM
TGI (NCI-H226 lung): > 100 µM
TGI (IGROV1 ovarian): > 100 µM
TGI (HOP-62 NSCLC): 36 µM
TGI (U251 CNS): 50.2 µM
TGI (OVCAR-5 ovarian): > 100 µM
TGI (UACC-257 melanoma): > 100 µM
TGI (HS 578T breast): 58.1 µM
TGI (HOP-92 NSCLC): > 100 µM
TGI (TK-10 renal): 92.6 µM
TGI (HL-60(TB) leukemia): > 100 µM
TGI (A549 NSCLC): > 100 µM
TGI (786-0 renal): > 100 µM
TGI (HCT-15 colon): > 100 µM
TGI (SW-620 colon): > 100 µM
TGI (SF-539 CNS): 49.8 µM
TGI (SK-OV-3 ovarian): 43 µM
TGI (OVCAR-3 ovarian): > 100 µM
TGI (RPMI-8226 leukemia): > 100 µM
TGI (NCI-H460 lung): > 100 µM
TGI (PC-3 prostate): > 100 µM
TGI (T-47D breast): > 100 µM
TGI (SR leukemia): > 100 µM
TGI (CCRF-CEM leukemia): > 100 µM
TGI (SNB-75 CNS): 40.4 µM
TGI (OVCAR-4 ovarian): 88.8 µM
TGI (NCI-H23 lung): > 100 µM
TGI (SN12C renal): > 100 µM
TGI (DU-145 prostate): > 100 µM
TGI (HCT-116 colon): > 100 µM
TGI (A498 renal): > 100 µM
TGI (M14 melanoma): > 100 µM
TGI (MDA-MB-435): > 100 µM
TGI (SK-MEL-2 melanoma): 40.6 µM
TGI (KM12 colon): > 100 µM
TGI (EKVX NSCLC): > 100 µM
TGI (NCI/ADR-RES ovarian): > 100 µM
TGI (MOLT-4 leukemia): > 100 µM
TGI (MDA-MB-231 breast): > 100 µM
TGI (CAKI-1 renal): > 100 µM
TGI (SK-MEL-5 melanoma): > 100 µM
TGI (NCI-H522 lung): > 100 µM
TGI (MALME-3M melanoma): > 100 µM
TGI (UACC-62 melanoma): 98.2 µM
TGI (COLO 205 colon): > 100 µM
TGI (SNB-19 CNS): 46.8 µM
TGI (OVCAR-8 ovarian): 62.2 µM
TGI (HCC-2998 colon): > 100 µM
TGI (MDA-N): > 100 µM
TGI (UO-31 renal): > 100 µM
TGI (ACHN renal): > 100 µM
TGI (SF-295 CNS): 31.6 µM
TGI (HT29 colon): > 100 µM
TGI (SK-MEL-28 melanoma): > 100 µM
TGI (MCF7 breast): > 100 µM
TGI (BT-549 breast): > 100 µM
TGI (LOX IMVI melanoma): > 100 µM
TGI (SF-268 CNS): > 100 µM
